This is an account of results in article PMC12216181 (Nature Communications, 2025).

SMILES strings stand for the structures.

Data set [1] deals with EV-D68 US/MO/14-18947. Put plainly: Plaque assay, EV-D68 US/MO/14-18947 in RD cells. The class given is cell-based. The settings on record: Enterovirus D, EVD68, RD.
The test system of another data set is EV-A71 Tainan/4643/1998. Kind of data set: Plaque assay, EV-A71 Tainan/4643/1998. The class given is cell-based. The settings on record: Enterovirus A, EVA71, plaque assay.
The subject of data set [2] is EV-D68 US/MO/14-18947. Kind of data set: Time-of-addition experiment, single cycle of EV-D68 replication in RD cells. The class given is cell-based, Enterovirus D68. The settings on record: 3 µM.
Data set [3] deals with EV-D68 US/MO/14-18947 passaged viruses. Kind of data set: Serial passage experiment 1: drug sensitivity of passaged viruses. The class given is cell-based, Enterovirus D68. The settings on record: Enterovirus D, CPE assay.
The test system of the next data set is EV-D68 US/IL/14-18952. Put plainly: EV-D68 infection neonatal mouse model. The class given is in vivo, Swiss Webster mice. The settings on record: for Weight at DPI14: 50 mg/kg i.p. daily.
Data set [4] in a line: Drug concentration in the spinal cord by LC-MS/MS. The class given is in vivo, Swiss Webster mouse pups. The settings on record: Swiss Webster, mouse, ip, 50 mg/kg, one hour after the intraperitoneal injection.
The nature of data set [5]: Tolerability in uninfected Jun6504-treated mice. The class given is in vivo. The settings on record: 50 mg/kg dose, uninfected treated animals.
In data set [6] the test system is EV-D68. Put plainly: IHC staining of spinal cord sections of EV-D68-infected mice. The class given is in vivo, Swiss Webster pups. The settings on record: 8 DPI, 24-h delayed treatment model.
For data set [7], the system named is EV-D68. The settings on record: AG129 mice; cited from earlier work.
Data set [8] has as its system EV-D68. The settings on record: EV-D68 infection neonatal mouse model; cited from earlier work.
The next data set concerns EV-D68-associated AFM. The settings on record: patients with EV-D68-associated AFM; cited from earlier work.
Data set [9] deals with EV-D68. The settings on record: EV-D68 animal infection models; cited from earlier work.

One may read the EC50 as the concentration at which the effect is half-maximal. Lower therefore signals higher potency in that assay. `CC(C)n1ncc2c(C(=O)NCC3(C)CNC3)cc(C3CC3)nc21` [Jun6504]: the EC50 with EV-D68 US/MO/14-18947 [1] came out at 130 nM; in the data set with EV-A71 Tainan/4643/1998 it was 220 nM; in data set [3] (EVD68, P3 virus, selection pressure 400 nM), 800 nM; in data set [3] (EVD68, P6 virus, selection pressure 3.2 μM), 3380 nM. The “effect on antiviral potency” value in the data set on EV-D68 US/MO/14-18947 [2] (added at 5 hpi) was “significant reduction in the antiviral potency”. Moreover, in the data set on EV-D68 US/MO/14-18947 [2] (added at 7 hpi), the effect on efficacy entry is reported as “almost complete loss of efficacy”. For the same compound, in the data set with EV-D68 US/MO/14-18947 [2] (added before or at 3 h post-infection), the “effect on EV-D68 amplification” value is on record as “completely inhibited EV-D68 amplification”. The “Weight at DPI14” value in the data set on EV-D68 US/IL/14-18952 (24-h delayed treatment model, control 8.65 ± 0.23 g) was 9.59 ± 0.27 g; with EV-D68 US/IL/14-18952 (immediate treatment model, control 7.92 ± 0.46 g), 9.29 ± 0.14 g. The “Viral titer in spinal cord” value with EV-D68 US/IL/14-18952 (DPI5 after 4 daily doses, 24-h delayed model, control 19,834 ± 11,519) is on record as 4520 ± 1796 TCID50. Also, the concentration at 1 h in [4] was around 575 ng/g. Also, the tolerability result in data set [5] was “no signs of pain, weight loss, or death were observed”. For the same compound, in the data set on EV-D68 [6], the “EV-D68-infected (NeuN+) neurons in the cervical enlargement” value is on record as “no infected (NeuN+) neurons were observed”. The “ChAT-positive motor neurons in lumbar spinal cord” value in the data set with EV-D68 [6] (treated animals with paralysis score 0) is listed as “many ChAT-positive motor neurons present”.

On to `CC(C)S(=O)(=O)n1c(N)nc2ccc(/C(=N/O)c3ccccc3)cc21` [enviroxime], for which the therapeutic efficacy entry in the data set on EV-D68 [7] is listed as “no therapeutic efficacy”.

As to `CNCCC(Oc1ccc(C(F)(F)F)cc1)c1ccccc1` (stereo not shown) [fluoxetine], the “effect on motor impairment and viral titers” value with EV-D68 [8] is “did not reduce motor impairment or viral titers in the muscle and spinal cord”. Besides, the neurological outcomes with EV-D68-associated AFM is on record as “failed to improve neurological outcomes”.

For the compound `N=C(N)N` [guanidine], in the data set on EV-D68 [9], the “in vivo antiviral activity” value was “have shown in vivo antiviral activity”.

Take `CCOC(=O)c1ccc(OCCC2CCN(c3ccc(C)nn3)CC2)cc1` [pirodavir]: in the data set on EV-D68 [7], the therapeutic efficacy result is given as “no therapeutic efficacy”.

For the compound `Cc1cc(CCCOc2c(C)cc(-c3noc(C(F)(F)F)n3)cc2C)on1` [pleconaril], the therapeutic efficacy entry in the data set on EV-D68 [7] is recorded as “no therapeutic efficacy”.

Take `NC(=O)c1ncn([C@@H]2O[C@H](CO)[C@@H](O)[C@H]2O)n1` [ribavirin]: the therapeutic efficacy entry in the data set with EV-D68 [7] was “no therapeutic efficacy”.

Consider `CCOC(=O)/C=C/[C@H](C[C@@H]1CCNC1=O)NC(=O)[C@@H](CC(=O)[C@@H](NC(=O)c1cc(C)on1)C(C)C)Cc1ccc(F)cc1` [rupintrivir], for which the therapeutic efficacy entry with EV-D68 [7] is recorded as “no therapeutic efficacy”.
